Source: patent publication US20230027066A1 (Urovant Sciences GmbH, priority 2019, published 2023)

Assays:
men and women with OAB = experiment: Phase 2b study of vibegron in OAB, Part 1, efficacy at Week 8 (voiding diary); type: in vivo, human; conditions: tolterodine ER 4 mg
From the text: Part 2 was designed to continue to assess the safety and efficacy of concomitant dosing. […] Subjects in both Part 1 and Part 2 had the option of enrolling in a 1-year extension. Participants were required to keep a voiding diary, recording the occurrence of each strong urge, total incontinence, and urge incontinence episode. Efficacy data for Part 1 and Part 2 are summarized herein.
The total number of urgency incontinence episodes must have exceeded the total number of stress incontinence episodes for all subjects.

[1] = Phase 3 study (75 mg), adverse events; type: in vivo, human
Procedure: Study assessments of safety included adverse events, physical examinations, vital signs (and weight), and clinical laboratory tests
An adverse event is any untoward medical occurrence in a patient or clinical investigation patient, temporally associated with the use of a medicinal product, whether or not considered related to the medicinal product.
Adverse Events of Clinical Interest for this study included:
Safety analyses were conducted using the SAF and summarized by treatment group as treated. The treatment-emergent period is defined as the period of time from the first dose date of the double blinded Study Treatment through 28 days after the last dose of Study Treatment, or the date of initiation of another investigational agent or surgical intervention or rollover to the extension study, whichever occurs first. Safety was assessed through summaries of adverse events, the frequency of treatment discontinuations due to adverse events, and clinical laboratory evaluations.

[2] = 40-week extension study (52 weeks), adverse events
From the text: Approximately 500 men and women with overactive bladder who completed 12 weeks in the parent study were permitted to enroll, at approximately 110 study sites in the U.S.
Secondary endpoints were evaluation of CFB at Week 52 in average number of micturitions, Urge Urinary Incontinence (UUI) episodes, urgency episodes, and total urinary incontinence episodes. All CFB calculations used the parent study Baseline value.

Cc1ccc(O)c([C@H](CCN(C(C)C)C(C)C)c2ccccc2)c1 [Tolterodine ER, tolterodine, reference compound]
Change from baseline in volume voided per micturition at Week 8, difference from placebo in LS means (men and women with OAB): 30.77 mL | Micturitions: adjusted difference from placebo at Week 8, difference in LS means (MMRM) (men and women with OAB): −0.6 | Micturitions: change from baseline at Week 8, mean (men and women with OAB): −1.73 | Micturitions: daily number of events, Week 8 mean (men and women with OAB): 9.24 | Micturitions: difference from placebo at Week 8, difference in LS means (cLDA) (men and women with OAB): −0.54 | Urgency episodes: adjusted difference from placebo at Week 8, difference in LS means (MMRM) (men and women with OAB): −1.0 | Urgency episodes: change from baseline at Week 8, mean (men and women with OAB): −2.52 | Urgency episodes: daily number of events, Week 8 mean (men and women with OAB): 3.91 | Urgency episodes: difference from placebo at Week 8, difference in LS means (cLDA) (men and women with OAB): −0.94 | Total incontinence episodes: adjusted difference from placebo at Week 8, difference in LS means (MMRM) (men and women with OAB; OAB Wet subjects): −0.3 | Total incontinence episodes: change from baseline at Week 8, mean (men and women with OAB; OAB Wet subjects): −1.80 | Total incontinence episodes: daily number of events, Week 8 mean (men and women with OAB; OAB Wet subjects): 1.32 | Total incontinence episodes: difference from placebo at Week 8, difference in LS means (cLDA) (men and women with OAB; OAB Wet subjects): −0.34 | Urgency incontinence episodes: adjusted difference from placebo at Week 8, difference in LS means (MMRM) (men and women with OAB; OAB Wet subjects): −0.4 | Urgency incontinence episodes: change from baseline at Week 8, mean (men and women with OAB; OAB Wet subjects): −1.67 | Urgency incontinence episodes: daily number of events, Week 8 mean (men and women with OAB; OAB Wet subjects): 1.15 | Urgency incontinence episodes: difference from placebo at Week 8, difference in LS means (cLDA) (men and women with OAB; OAB Wet subjects): −0.46 | AE: ALT increase ([1]; 12-week study): 1 (0.2) n (%) | AE: AST increase ([1]; 12-week study): 1 (0.2) n (%) | AE: Atrial fibrillation ([1]; 12-week study): 1 (0.2) n (%) | AE: Bilirubin increased ([1]; 12-week study): 1 (0.2) n (%) | AE: Blood creatinine increased ([1]; 12-week study): 1 (0.2) n (%) | AE: Blood pressure diastolic increased ([1]; 12-week study): 1 (0.2%) n (%) | AE: Blood pressure increased ([1]; 12-week study): 8 (1.9) n (%) | AE: Cardiac failure congestive ([1]; 12-week study): 0 n (%) | AE: Cerebrovascular accident ([1]; 12-week study): 1 (0.2) n (%) | AE: Chest discomfort ([1]; 12-week study): 0 n (%) | AE: Chest pain ([1]; 12-week study): 0 n (%) | AE: Chronic kidney disease ([1]; 12-week study): 0 n (%) | AE: Constipation ([1]; 12-week study): 6 (1.4) n (%) | AE: Cystitis ([1]; 12-week study): 1 (0.2) n (%) | AE: Diarrhea ([1]; 12-week study): 9 (2.1) n (%) | AE: Dizziness ([1]; 12-week study): 4 (0.9) n (%) | AE: Drug hypersensitivity ([1]; 12-week study): 0 n (%) | AE: Dry mouth ([1]; 12-week study): 28 (6.5) n (%) | AE: Dysuria ([1]; 12-week study): 0 n (%) | AE: Escherichia urinary-tract infection ([1]; 12-week study): 1 (0.2%) n (%) | AE: Fatigue ([1]; 12-week study): 6 (1.4) n (%) | AE: Glomerular filtration rate decreased ([1]; 12-week study): 2 (0.5) n (%) | AE: Headache ([1]; 12-week study): 11 (2.6) n (%) | AE: Hepatic enzyme increased ([1]; 12-week study): 1 (0.2) n (%) | AE: Hot flush ([1]; 12-week study): 1 (0.2) n (%) | AE: Hyperglycemia ([1]; 12-week study): 2 (0.5) n (%) | AE: Hypertension ([1]; 12-week study): 11 (2.6) n (%) | AE: Hypotension ([1]; 12-week study): 1 (0.2) n (%) | AE: Nasopharyngitis ([1]; 12-week study): 11 (2.6) n (%) | AE: Nausea ([1]; 12-week study): 5 (1.2) n (%) | AE: Pollakiuria ([1]; 12-week study): 0 n (%) | AE: Positional vertigo ([1]; 12-week study): 1 (0.2) n (%) | AE: Residual urine volume increased ([1]; 12-week study): 6 (1.4) n (%) | AE: Somnolence ([1]; 12-week study): 2 (0.5) n (%) | AE: Syncope ([1]; 12-week study): 1 (0.2) n (%) | AE: Tachycardia ([1]; 12-week study): 1 (0.2) n (%) | AE: Transaminases increased ([1]; 12-week study): 0 n (%) | AE: Type 2 diabetes mellitus ([1]; 12-week study): 0 n (%) | AE: Urinary retention ([1]; 12-week study): 3 (0.7) n (%) | AE: Urinary tract infection ([1]; 12-week study): 25 (5.8) n (%) | AE: Vertigo ([1]; 12-week study): 1 (0.2) n (%) | AE: Back pain ([1]; patients ≥75 years): 2.1% | AE: Diarrhea ([1]; patients ≥75 years): 4.2% | AE: Dyspnea ([1]; patients ≥75 years): 0% | AE: Nausea ([1]; patients ≥75 years): 0% | AE: Rash ([1]; patients ≥75 years): 0% | AE: Somnolence ([1]; patients ≥75 years): 2.1% | AE: Upper respiratory tract infection ([1]; patients ≥75 years): 0% | AE: Urinary retention ([1]; patients ≥75 years): 4.2% | AE: Urinary tract infection ([1]; patients ≥75 years): 8.3% | Overall AE rate ([1]; patients ≥75 years): 50.0% | Any AE of clinical interest, % ([1]; safety population): (8.8%) | Patients with at least one treatment emergent serious AEs, % ([1]; safety population): (2.3) % | SAEs resulting in death, % ([1]; safety population): (0.2) % | SAEs: Hospitalization, % ([1]; safety population): (1.9) % | SAEs: other serious criteria, % ([1]; safety population): (0.5) % | Patients with at least one treatment emergent adverse events, % ([1]; safety population, 12-week study): (38.6) % | Tachycardia rate ([1]; tolterodine ER 4 mg once daily, 12 weeks): 0.2% | Patients with at least one Serious AE ([1]; vibegron 75 mg or tolterodine ER 4 mg once daily, 12 weeks): 2.3% | Discontinued the study: Death ([2]; 40-Weeks arm): 0 n (%) | Discontinued the study: Death ([2]; 52-Weeks arm): 0 n (%) | SAEs resulting in death (not considered related by Investigator or Sponsor) ([2]; Overall groups): 0 n (%) | Discontinued the study: Death ([2]; Overall groups, Randomized Set Extension): 0 n (%) | Discontinued the study: Adverse Event ([2]; both, human, in vivo): 8 (3.4) n (%) | Patients with at least one treatment-emergent adverse event ([2]; both, human, in vivo): 126 (54.3) n (%) | Patients with at least one treatment-emergent serious AE ([2]; both, human, in vivo): 10 (4.3) n (%) | SAEs considered treatment-related by the investigator ([2]; both, human, in vivo): 2 (0.9) n (%) | SAEs: Hospitalization ([2]; both, human, in vivo): 9 (3.9) n (%) | SAEs: Other serious criteria ([2]; both, human, in vivo): 2 (0.9) n (%) | Discontinued the study: Adverse Event ([2]; both, human, in vivo, 40 weeks): 4 (4.4) n (%) | AE leading to discontinuation of study drug: Acute prerenal failure ([2]; both, human, in vivo, 52 weeks): 1 (0.4) n (%) | AE leading to discontinuation of study drug: Amnesia ([2]; both, human, in vivo, 52 weeks): 0 n (%) | AE leading to discontinuation of study drug: Any ([2]; both, human, in vivo, 52 weeks): 8 (3.4) n (%) | AE leading to discontinuation of study drug: Aortic stenosis ([2]; both, human, in vivo, 52 weeks): 1 (0.4) n (%) | AE leading to discontinuation of study drug: Atrial fibrillation ([2]; both, human, in vivo, 52 weeks): 1 (0.4) n (%) | AE leading to discontinuation of study drug: Blood creatinine increased ([2]; both, human, in vivo, 52 weeks): 0 n (%) | AE leading to discontinuation of study drug: Blood urea increased ([2]; both, human, in vivo, 52 weeks): 0 n (%) | AE leading to discontinuation of study drug: Cardiac failure ([2]; both, human, in vivo, 52 weeks): 1 (0.4) n (%) | AE leading to discontinuation of study drug: Cardiomyopathy ([2]; both, human, in vivo, 52 weeks): 1 (0.4) n (%) | AE leading to discontinuation of study drug: Chronic kidney disease ([2]; both, human, in vivo, 52 weeks): 1 (0.4) n (%) | AE leading to discontinuation of study drug: Constipation ([2]; both, human, in vivo, 52 weeks): 0 n (%) | AE leading to discontinuation of study drug: Diarrhea ([2]; both, human, in vivo, 52 weeks): 0 n (%) | AE leading to discontinuation of study drug: Dizziness ([2]; both, human, in vivo, 52 weeks): 1 (0.4) n (%) | AE leading to discontinuation of study drug: Dry eye ([2]; both, human, in vivo, 52 weeks): 1 (0.4) n (%) | AE leading to discontinuation of study drug: Dyspnoea ([2]; both, human, in vivo, 52 weeks): 1 (0.4) n (%) | AE leading to discontinuation of study drug: Haematuria ([2]; both, human, in vivo, 52 weeks): 1 (0.4) n (%) | AE leading to discontinuation of study drug: Headache ([2]; both, human, in vivo, 52 weeks): 1 (0.4) n (%) | AE leading to discontinuation of study drug: Intervertebral disc degeneration ([2]; both, human, in vivo, 52 weeks): 1 (0.4) n (%) | AE leading to discontinuation of study drug: Mitral valve incompetence ([2]; both, human, in vivo, 52 weeks): 1 (0.4) n (%) | AE leading to discontinuation of study drug: Osteoarthritis ([2]; both, human, in vivo, 52 weeks): 1 (0.4) n (%) | AE leading to discontinuation of study drug: Pulmonary embolism ([2]; both, human, in vivo, 52 weeks): 1 (0.4) n (%) | AE leading to discontinuation of study drug: Sinus tachycardia ([2]; both, human, in vivo, 52 weeks): 1 (0.4) n (%) | AE leading to discontinuation of study drug: Tricuspid valve incompetence ([2]; both, human, in vivo, 52 weeks): 1 (0.4) n (%) | AE: Anaemia ([2]; both, human, in vivo, 52 weeks): 2 (0.9) n (%) | AE: Atrial fibrillation ([2]; both, human, in vivo, 52 weeks): 1 (0.4) n (%) | AE: Back pain ([2]; both, human, in vivo, 52 weeks): 3 (1.3) n (%) | AE: Blood pressure increased ([2]; both, human, in vivo, 52 weeks): 4 (1.7) n (%) | AE: Bronchitis ([2]; both, human, in vivo, 52 weeks): 3 (1.3) n (%) | AE: Constipation ([2]; both, human, in vivo, 52 weeks): 6 (2.6) n (%) | AE: Diarrhea ([2]; both, human, in vivo, 52 weeks): 4 (1.7) n (%) | AE: Dizziness ([2]; both, human, in vivo, 52 weeks): 2 (0.9) n (%) | AE: Dry mouth ([2]; both, human, in vivo, 52 weeks): 12 (5.2) n (%) | AE: Fatigue ([2]; both, human, in vivo, 52 weeks): 0 n (%) | AE: Headache ([2]; both, human, in vivo, 52 weeks): 9 (3.9) n (%) | AE: Hyperglycemia ([2]; both, human, in vivo, 52 weeks): 2 (0.9) n (%) | AE: Hypertension ([2]; both, human, in vivo, 52 weeks): 20 (8.6) n (%) | AE: Hypotension ([2]; both, human, in vivo, 52 weeks): 0 n (%) | AE: Musculoskeletal pain ([2]; both, human, in vivo, 52 weeks): 1 (0.4) n (%) | AE: Nasopharyngitis ([2]; both, human, in vivo, 52 weeks): 12 (5.2) n (%) | AE: Nausea ([2]; both, human, in vivo, 52 weeks): 7 (3.0) n (%) | AE: Residual urine volume increased ([2]; both, human, in vivo, 52 weeks): 3 (1.3) n (%) | AE: Syncope ([2]; both, human, in vivo, 52 weeks): 1 (0.4) n (%) | AE: Tachycardia (Sinus Tachycardia) ([2]; both, human, in vivo, 52 weeks): 1 (0.4) n (%) | AE: Upper respiratory tract infection ([2]; both, human, in vivo, 52 weeks): 1 (0.4) n (%) | AE: Urinary retention ([2]; both, human, in vivo, 52 weeks): 1 (0.4) n (%) | AE: Urinary tract infection ([2]; both, human, in vivo, 52 weeks): 17 (7.3) n (%) | Discontinued the study: Adverse Event ([2]; both, human, in vivo, 52 weeks): 4 (2.8) n (%)
